Data from a melting point compilation (Tetko et al.; mined from patent text by program, amines drawn as free bases though some values may be those of a salt).

| Compound | melting point [°C] |
| --- | --- |
| C#CCN1C(=O)C(C)Oc2cc(Cl)c(-c3ccc(C(F)(F)F)n(C)c3=O)cc21 (stereo not given) | 203 to 204 |
| CC[C@H]1[C@H](O)CN1c1cc2c(cc1F)c(=O)c(C(=O)O)cn2C1CC1 (relative stereo) | 250 to 255 |
| Cc1csc(C(=O)C(F)(F)F)n1 | 77 to 81 |
| C1=Cn2cnnc2Cc2ccccc21 | 157 to 158 |
| COCCOCCOCc1c(Br)c(Br)c(Br)c(Br)c1Br | 83 |
| NCCCCOc1ccc2c(c1)NC(=O)C(CC(=O)O)C2 (stereo not given) | 229 to 230 |
| CC(C)(C)OC(=O)N[C@H]1CC[C@@H](OS(C)(=O)=O)C1 | 88 to 89 |
| N#CN1C2CCC1CC(c1n[nH]c3ccccc13)C2 (stereo not given) | 201 to 202 |
| CCCCOc1nc2cc(C)nn2c2c1cnc1c2cnn1CC | 103 to 104 |
| Cc1ccc(-c2nc(OC(C)C)c(Br)c(OC(C)C)n2)cc1 | 74 to 75 |
| CC(O)c1cc(C#C[Si](C)(C)C)c(O)c(Cl)n1 (stereo not given) | 97 to 98 |
| CC(=O)Nc1cc2c(cc1[N+](=O)[O-])OCOC2 | 158 to 159 |
| Cc1ncn(-c2nc(C(=O)NCc3ccc(F)c(C)c3)c(O)c(=O)n2C)n1 | 204 to 205 |
| Cc1cc(C(N)=O)ncc1C(c1c(F)ccc(F)c1F)S(=O)(=O)CCC(C)(F)F (stereo not given) | 165 to 166 |
| CC(C)(C)c1nc2cc(N3CCOCC3)c([N+](=O)[O-])cc2s1 | 119 to 121 |
| COc1ccc(-c2nn(CC=Cc3ccc(Cl)cc3)c(=O)cc2-c2ccc(OC)c(F)c2)cc1 | 109 to 111 |
| O=[N+]([O-])c1ccc(-c2ccc3nncn3n2)cc1C(F)(F)F | 129 to 135 |
| CCOC(=O)c1cnn2c1nc(OCCCN(C)C)c1cnc3c(cnn3CC)c12 | 106 to 107 |
| CNC(=O)[C@@H](NC(=O)[C@H](CC(=O)O)CC(C)C)C(C)(C)C | 204 to 205 |
| COc1ccc(-n2nc(C(F)F)cc2-c2ccc(SC)cc2)cc1 | 100 to 101 |
| COc1ccc(C2CC(=O)N(c3c(C)c(C)c4c(c3C)[C@@H](c3ccc(C)cc3)C(C)(C)O4)C(=O)C2)cc1 | 207 to 209 |
| N#Cc1cccc2c1CCC2=O | 122 |
| C=C(CCC(=O)O)CC(N)C(=O)O (stereo not given) | 68 |
| Cc1cccc(-c2nc3cccnn3c2-c2ccnc(N(C(=O)C3CC3)C(=O)C3CC3)c2)c1 | 173 to 175 |
| O=C1NC(=O)c2c1c(-c1ccccc1Cl)cc1c2c2cc(O)c(OCCCN3CCOCC3)cc2n1CCO | 253 to 255 |

| Compound | melting point [°C] |
| --- | --- |
| CCOc1ccc(C2=NN(CC3CC3)C(=O)[C@H]3CC=CC[C@@H]23)cc1OCC (relative stereo) | 142 to 145 |
| O=C1CSCC2=C1C(c1ccc(F)c(Br)c1)n1nccc1N2 (stereo not given) | 160 to 163 |
| CC(C)(Cl)Cn1ncc(Cl)c(Cl)c1=O | 61 to 66 |
| CCOC(=O)c1ncn2c1CN(C)C(=O)c1c(C#N)cccc1-2 | 200 to 201 |
| CC(=O)SCCC(=O)N(C)C | 118 to 121 |
| CCN(CC)C(=O)c1nc(CCl)n(-c2ccc(Cl)cc2C(=O)c2ccccc2)n1 | 118 to 119 |
| CSC1=NCCN1C(=O)c1cccnc1Cl | 100 to 102 |
| CCCc1c(OCCCCCCc2cccc(OCCCCCCCC(=O)O)c2CCC(=O)O)ccc2c1OCCC2=O | 79 to 81 |
| Cn1nc(-c2ccc(F)cc2)c(-c2ccncc2)c1CCCc1ccc(N)cc1 | 80.5 to 81.1 |
| CC(C=CC=C(C)CCCC(C)CCCC(C)C)=CC(=O)O (stereo not given) | 84.5 to 85.5 |
| O=C(O)C#Cc1ccccn1 | 130 |
| CCC(=O)C1=CCC(c2c(C)c(C)c3c(c2Cl)CC(C)(C)C3)CC1=O (stereo not given) | 74 to 75 |
| Cc1nccn1CCC(=O)c1nn2c3c(cccc13)CCC2 | 133 to 134 |
| Cc1cccc2[nH]c(C=O)cc12 | 147 to 149 |
| O=C(Oc1cc2ccccc2cc1OC(=O)c1cc(O)c(O)c(O)c1)c1cc(O)c(O)c(O)c1 | 182 to 183 |
| Cc1cc(NCc2ccc3c(c2)OCO3)nc(SCC#N)n1 | 115 to 118 |
| CC(=O)C(CCC#N)(CCC#N)C(C)=O | 185 to 186 |
| Cc1nnc2n1-c1ccc(Br)cc1C(c1ccccc1Cl)=CC2 | 250 to 252 |
| CCOC(=O)c1c(C(F)(F)F)nc(C(F)F)c(C(=O)OC)c1N(C)C | 80 to 81 |
| CN=C(NC#N)NCC(O)COc1cccc(CN2CCCCC2)c1 (stereo not given) | 45 to 47 |
| Cc1nn(C2CCCC2C)c(N)c1C(N)=O (stereo not given) | 124 to 126 |
| CC1(C)CC(=O)Nc2cc3nc(-c4ccncc4)[nH]c3cc21 | 201 to 202 |
| C#CCOC(=O)c1ncn2c1CN(C)C(=O)c1c(Cl)cccc1-2 | 198 to 200 |
| C[C@]1(COc2ccc(N3CCC(Cc4cccc(OC(F)(F)F)c4)CC3)cc2)Cn2cc([N+](=O)[O-])nc2O1 | 187 to 190 |
| O=S1(=O)c2cccc3cccc(c23)N1CCCN1CC=C(c2ccc(O)cc2)CC1 | 198 |

Results, then the molecule that gave them:

| melting point [°C] | Compound |
| --- | --- |
| 198 to 199 | COc1ccc(-c2nc(C)cc(O)n2)cc1 |
| 234 to 235 | Cc1cccc(C(=O)NC(Nc2c(Nc3cccnc3Cl)c(=O)c2=O)C(C)(C)Cc2ccccc2)c1 (stereo not given) |
| 58 to 59 | CO[C@@]1(C)O[C@@H]2[C@H](OCc3ccccc3)OC[C@H](OC(=O)c3ccc([N+](=O)[O-])cc3)[C@H]2O[C@]1(C)OC |
| 103 to 105 | C=CCc1c(OCc2ccc3ccccc3n2)ccc2c1c(SC(C)(C)C)c(CC(C)(C)C(=O)O)n2Cc1ccc(Cl)cc1 |
| 152 to 153 | CC(=O)N(c1ccccc1)c1ccc(C(=O)CBr)cc1 |
| 283 to 284 | Nc1ccc(Br)c2ccn3c(=O)c(C(=O)O)cnc3c12 |
| 205 to 207 | Cc1c(C#N)ncn1-c1cccc(O)c1 |
| 194 | CCCCc1nc(SCCO)c(C(=O)O)n1Cc1ccc(-c2ccccc2C(=O)O)cc1 |
| 168 to 169 | CC(C)(C)OC(=O)C[C@@H](NC(=O)/C=C/S(=O)(=O)c1ccccc1)C(=O)OC(C)(C)C |
| 112 | CC(NS(=O)(=O)c1cc(C(=O)Cl)ccc1Cl)c1ccccc1 (stereo not given) |
| 139 to 140 | CS(=O)(=O)N(Cc1cccnc1)c1ccc(Oc2ccccc2)cc1 |
| 76 to 77 | C=CCNC(=O)C1CCc2ccccc2O1 (stereo not given) |
| 147 to 148 | COc1cc(C=Cc2ccccc2)c(C#N)c(OC)c1 |
| 210 to 212 | Fc1ccc2[nH]c3c(c2c1)CN(CCCCc1ccncc1)CC3 |
| 55 to 56 | CSc1nc(=O)n(-c2ccc(Cl)c(C(=O)OC(C)C)c2)c(=O)n1C#N |
| 135 to 136 | CCOC(=O)c1c(OC)nc2c(C)cc(C)cc2c1-c1ccccc1Cl |
| 117 to 118 | COC(=O)CCCc1cc2nc(Cl)ccc2n1S(=O)(=O)c1ccc(I)cc1 |
| 208 to 210 | O=C(c1ccc(O)cc1)c1ccc(O)c(Cl)c1Cl |
| 294 | O=C1NCCN(NC(=O)c2ccc(O)c(O)c2)C1=O |
| 193 to 198 | O=C(Cn1nc2ccccc2n1)Nc1ccc(-n2nc(C(F)(F)F)cc2C2CC2)nc1 |
| 50 to 52 | Cc1nnc(C(O)CCCCCCOc2ccccc2)o1 (stereo not given) |
| 124 to 126 | O=C(O)/C=C(/C#Cc1ccccc1)c1ccccc1 |
| 182 to 183 | CC(C)Cn1c(CNC(=O)OC(C)(C)C)c(-c2ccccc2)c2cc(CCC(=O)O)ccc2c1=O |
| 123 to 126 | COCCO[C@@H]1c2ccn3c(Cl)c(C)nc3c2N[C@H](c2ccccc2)[C@H]1O |
| 171 to 172 | O=C(Nc1ccc(F)c(C(F)(F)F)c1)c1cccc2cc(OS(=O)(=O)C(F)(F)F)ccc12 |

| melting point [°C] | Compound |
| --- | --- |
| 147 to 150 | Cc1noc(NS(=O)(=O)c2ccccc2-c2cccnc2)c1C |
| 107 to 109 | O=C(Cc1ccc(CN2CCCC2)cc1)NCc1ccc(Br)cc1 |
| 122 to 125 | C[C@]12CCC(=O)C=C1CC[C@@H]2c1cn(Cc2ccccc2)nn1 |
| 61 to 63 | CC(=O)c1nccc(-c2ccc(Oc3ccc(F)cc3)cc2)n1 |
| 80.6 | CCNc1cccc2c1OC1(CC1)C2=O |
| 88 to 90 | CC(C)(NC(=O)C(COCc1ccccc1)NC(=O)c1ccccc1)c1ccccc1 (stereo not given) |
| 325 to 327 | Cc1ccc(N=C(NC#N)NCc2ccc3c(c2)CN(C2CCC(=O)NC2=O)C3=O)cc1Cl (stereo not given) |
| 202 to 204 | Cc1noc(C)c1Cn1cc(NC(=O)c2scc(S(C)(=O)=O)c2Cl)cn1 |
| 143 to 145 | COc1ccccc1C(Nc1ccncc1)c1ccccc1 (stereo not given) |
| 231 to 232 | NS(=O)(=O)c1ccc(-c2[nH]c3ccccc3c2-c2ccccc2)cc1 |
| 65 to 67 | CC(Cc1c[nH]c2ccccc12)(NC(=O)OC(CF)C(F)F)C(=O)NCCc1ccccn1 (stereo not given) |
| 55 to 64 | C[C@@H]1[C@@H](NC(=O)OCc2ccccc2)CN1S(=O)(=O)O |
| 280 | NS(=O)(=O)c1ccc(NC(=O)c2cccnc2SSc2ncccc2C(=O)Nc2ccc(S(N)(=O)=O)cc2)cc1 |
| 190 to 192 | O=C(/C=C/c1ccc(NS(=O)(=O)c2ccc(-c3ccccc3)cc2)cc1)NO |
| 115 to 117 | CNc1cc(S(=O)(=O)c2cccc(C(F)(F)F)c2)cc(Br)n1 |
| 186 | CCCC1(C)C(=O)N(CC(=O)Nc2c(C(C)C)cccc2C(C)C)C(=O)N1c1ccc(C)cc1 (stereo not given) |
| 158 to 159 | COCn1ccnc1C(O)(c1ccccc1)c1ccc(C(F)(F)F)cc1 (stereo not given) |
| 101 to 103 | CCOC(=O)C(C(=O)OCC)c1cc(=O)n(-c2ccccc2)c2ccccc12 |
| 197 to 198 | CO[C@@H](Cc1ccc(OCCc2nc(-c3cc(C)cc(C)c3)oc2C)c2ccccc12)C(=O)O |
| 106 to 107 | CCCc1nc(C(C)(C)O)c(C(=O)OCOC(=O)C(C)(C)C)n1Cc1ccc(-c2ccccc2C(=O)OC(C)(C)C)cc1 |
| 187 to 188 | CC(=O)Nc1c(C(=O)c2cc(C)ccn2)[nH]c2cc(Cl)ccc12 |
| 189 to 190 | CC(=O)N1CC(=O)NC(Cc2cccc(NC(=O)OC(C)(C)C)c2)C1=O (stereo not given) |
| 148 to 149 | CCOC(=O)COc1ccc(N2CCN(S(=O)(=O)c3ncn(C)c3Cl)CC2)cc1 |
| 51 to 53 | CCOC(=O)C(c1ccccc1)n1cccc1 (stereo not given) |
| 230 to 232 | CC1CCc2c(N3CCC(Cc4ccccc4)CC3)c(F)cc3c(=O)c(C(=O)O)cn1c23 (stereo not given) |
